# Measurements published in paper PMC4971072, “Chemically Homogenous Compounds with Antagonistic Properties at All α1-Adrenoceptor Subtypes but not β1-Adrenoceptor Attenuate Adrenaline-Induced Arrhythmia in Rats” (Frontiers in Pharmacology, 2016).
# Tests used:
# [1] = tested on: normal ECG in rats; experiment: The effect on normal electrocardiogram in rats; format: in vivo, rat; conditions: anesthetized rats, i.p. at ED84
# Description: The experiment was carried out to exclude the influence of tested compounds on normal ECG. […] The influence on QRS complex, PQ interval, heart rate (RR), and QTc interval was determined.
# [2] = molecular target: α1-adrenoceptor; conditions: rat cerebral cortex, [3H]-prazosin; ref Pytka et al. (2015); read-out: Adrenergic receptors Ki α1; cited from earlier work
# [3] = tested on: adrenaline-induced arrhythmia in rats; experiment: Prophylactic antiarrhythmic activity in adrenaline-induced arrhythmia; format: in vivo, rat
# Description: The studied compounds were administered i.p. 45 min before the injection of adrenaline, calcium chloride, or barium chloride. The electrocardiogram (ECG) was recorded during the first 2 min as well as in the 5th, 10th, and 15th min after the arrhythmogen injection. […]
# [4] = tested on: lipid peroxidation in rat brain homogenate; experiment: Lipid peroxidation in rat brain homogenate (TBARS), antioxidant effect; format: biochemical; conditions: 10^−3 M
# Description: The rat brain homogenate containing 10 mg tissue/ml was prepared in 0.9% saline. The rates of membrane lipid peroxidation were measured by the formation of thiobarbituric acid reactive substances (TBARS). Rat brain homogenates (1 ml) were incubated at 37°C for 5 min with 10 μl of a tested compound or vehicle. Lipid peroxidation was initiated by the addition of 50 μl of 0.5 mM FeCl2 and 50 μl of 2.0 mM ascorbic acid. After 30 min of incubation, the reaction was stopped by adding 0.1 ml of 0.2% butylated hydroxytoluene (BHT). Thiobarbituric acid reagent was then added and the mixture was heated for 15 min in a boiling water bath.
# [5] = molecular target: T1, α1B-adrenoceptors (Mus musculus, UniProt P97717); experiment: Functional bioassay, isolated mouse spleen, noradrenaline contraction; format: biochemical; conditions: noradrenaline as agonist
# T1 construct: The spleen was removed from male mice; from tissue; host or cells: isolated mouse spleen
# T1 sequence (P97717 1-514): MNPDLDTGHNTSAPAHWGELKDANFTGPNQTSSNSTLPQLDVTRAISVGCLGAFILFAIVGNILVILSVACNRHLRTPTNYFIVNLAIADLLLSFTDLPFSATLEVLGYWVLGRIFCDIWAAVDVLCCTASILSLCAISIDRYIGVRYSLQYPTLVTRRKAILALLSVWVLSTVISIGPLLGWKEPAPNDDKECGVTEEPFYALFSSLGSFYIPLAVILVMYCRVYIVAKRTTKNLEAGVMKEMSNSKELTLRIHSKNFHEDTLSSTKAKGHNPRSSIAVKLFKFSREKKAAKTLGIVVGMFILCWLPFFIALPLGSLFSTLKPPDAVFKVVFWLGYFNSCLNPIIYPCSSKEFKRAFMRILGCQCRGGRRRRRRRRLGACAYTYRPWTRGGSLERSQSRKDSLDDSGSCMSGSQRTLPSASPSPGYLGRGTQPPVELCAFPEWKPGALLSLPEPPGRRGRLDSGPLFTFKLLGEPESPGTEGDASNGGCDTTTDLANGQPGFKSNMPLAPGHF
# Description: The influence on α1B-adrenoceptors was evaluated using the isolated mouse spleen. The spleen was removed from male mice right after killing the anesthetized animal by cervical dislocation. […] The initial optimal tissues tension was set at 1.0 g. Through the 100 min of equilibration tissues were stimulated with noradrenaline (0.1−10.0 μM) three times with washing out until the contractile response become constant. Two cumulative concentration-response curves to noradrenaline, at an interval of 60 min, were established on each tissue both in the presence and absence of antagonist. The incubation with antagonists went on for 30 min. The experiments were carried out in the constant presence of propranolol (1 μM) to block β-adrenoceptors, and minimize the involvement of these adrenoceptors in the response to noradrenaline.
# Data are means ± S.E.M. of at least 4 separate experiments. To establish Hill slopes for the agonist concentration–response curves and calculate EC50 values, curves were fitted to all the data by non-linear regression. The EC50 value in the presence and absence of antagonists was used to ascertain the concentration ratio (CR). Schild analysis was performed.
# [6] = dose 2.5 mg/kg i.p. 45 min before adrenaline 20 μg/kg i.v.
# [7] = dose 5 mg/kg i.p. 45 min before adrenaline 20 μg/kg i.v.
# [8] = dose 10 mg/kg i.p. 45 min before adrenaline 20 μg/kg i.v.
smiles,measurement,setting,value
"COc1ccccc1N1CCN(CCOCCOc2c(C)cccc2C)CC1.Cl [HBK-14, 1-[(2,6-dimethylphenoxy)ethoxyethyl]-4-(2-methoxyphenyl)piperazine hydrochloride]","influence on ECG parameters (PQ interval, QRS complex, QTc interval)",[1],did not influence the ECG parameters
same,Beats/min (ECG),[1]; 0 min (initial values),366.0 ± 10.8 Beats/min
same,PQ (ECG),[1]; 0 min (initial values),47.1 ± 1.1 ms
same,QRS (ECG),[1]; 0 min (initial values),26.1 ± 0.7 ms
same,QT (ECG),[1]; 0 min (initial values),85.8 ± 1.3 ms
same,"QTc (ECG, Bazett)",[1]; 0 min (initial values),211.7 ± 3.2 ms
same,Beats/min (ECG),[1]; 5 min,369.8 ± 10.0 Beats/min
same,PQ (ECG),[1]; 5 min,46.0 ± 1.0 ms
same,QRS (ECG),[1]; 5 min,25.8 ± 0.5 ms
same,QT (ECG),[1]; 5 min,85.0 ± 4.1 ms
same,"QTc (ECG, Bazett)",[1]; 5 min,209.2 ± 8.3 ms
same,Beats/min (ECG),[1]; 10 min,367.0 ± 9.9 Beats/min
same,PQ (ECG),[1]; 10 min,46.3 ± 0.9 ms
same,QRS (ECG),[1]; 10 min,27.6 ± 1.0 ms
same,QT (ECG),[1]; 10 min,88.7 ± 1.9 ms
same,"QTc (ECG, Bazett)",[1]; 10 min,214.8 ± 5.0 ms
same,Beats/min (ECG),[1]; 15 min,359.8 ± 9.5 Beats/min
same,PQ (ECG),[1]; 15 min,47.5 ± 1.3 ms
same,QRS (ECG),[1]; 15 min,27.0 ± 0.6 ms
same,QT (ECG),[1]; 15 min,89.0 ± 2.4 ms
same,"QTc (ECG, Bazett)",[1]; 15 min,212.9 ± 5.7 ms
same,Beats/min (ECG),[1]; 20 min,358.4 ± 11.4 Beats/min
same,PQ (ECG),[1]; 20 min,46.3 ± 1.0 ms
same,QRS (ECG),[1]; 20 min,26.3 ± 0.4 ms
same,QT (ECG),[1]; 20 min,88.2 ± 2.9 ms
same,"QTc (ECG, Bazett)",[1]; 20 min,212.5 ± 4.6 ms
same,Beats/min (ECG),[1]; 30 min,359.8 ± 9.6 Beats/min
same,PQ (ECG),[1]; 30 min,48.8 ± 1.9 ms
same,QRS (ECG),[1]; 30 min,26.7 ± 0.9 ms
same,QT (ECG),[1]; 30 min,89.6 ± 1.7 ms
same,"QTc (ECG, Bazett)",[1]; 30 min,214.1 ± 5.0 ms
same,Beats/min (ECG),[1]; 40 min,362.6 ± 11.9 Beats/min
same,PQ (ECG),[1]; 40 min,48.2 ± 2.1 ms
same,QRS (ECG),[1]; 40 min,26.1 ± 0.4 ms
same,QT (ECG),[1]; 40 min,89.0 ± 2.1 ms
same,"QTc (ECG, Bazett)",[1]; 40 min,214.1 ± 5.2 ms
same,Beats/min (ECG),[1]; 50 min,361.6 ± 12.6 Beats/min
same,PQ (ECG),[1]; 50 min,47.3 ± 1.6 ms
same,QRS (ECG),[1]; 50 min,26.7 ± 1.0 ms
same,QT (ECG),[1]; 50 min,87.9 ± 1.2 ms
same,"QTc (ECG, Bazett)",[1]; 50 min,210.9 ± 5.1 ms
same,Beats/min (ECG),[1]; 60 min,364.6 ± 11.2 Beats/min
same,PQ (ECG),[1]; 60 min,48.4 ± 0.9 ms
same,QRS (ECG),[1]; 60 min,27.5 ± 0.7 ms
same,QT (ECG),[1]; 60 min,89.5 ± 2.4 ms
same,"QTc (ECG, Bazett)",[1]; 60 min,214.1 ± 4.2 ms
same,Ki,[2],22.8 nM
same,ED50,"[3]; Rattus norvegicus, read-out: ED50 (confidence limits)",3.88 mg/kg
same,Bigeminy (%),[3]; [6],50.0%
same,Blocks (%),[3]; [6],83.3%
same,Bradycardia (%),[3]; [6],83.3%
same,Extrasystoles (%),[3]; [6],100.0%
same,Bigeminy (%),[3]; [7],33.3%
same,Blocks (%),[3]; [7],33.3%
same,Bradycardia (%),[3]; [7],50.0%
same,Extrasystoles (%),[3]; [7],50.0%
same,Bigeminy (%),[3]; [8],16.7%
same,Blocks (%),[3]; [8],33.3%
same,Bradycardia (%),[3]; [8],50.0%
same,Extrasystoles (%),[3]; [8],16.7%
same,inhibition of lipid peroxidation (in words),[4],inactive
same,% reduction of absorbance (% antioxidant activity),[4]; TBARs at 532 nm,−4.10%
same,Absorbance,[4]; TBARs at 532 nm,0.939 ± 0.007
same,"Schild slope ± S.E.M., α1B",[5],1.03 ± 0.03
same,Kb,"[5]; read-out: pA2 ± S.E.M., α1B (converted)",20 nM
